The record followed here is patent US20070249545A1, “DIHYDROFOLATE REDUCTASE INHIBITION BY EPIGALLOCATECHIN GALLATE COMPOUNDS” (priority 2004, published 2007).

In one assay the target is T1, chicken liver DHFR (Gallus gallus, UniProt P00378).
T1 construct: from tissue; host or cells: chicken liver
Description: Kinetic analysis of inhibition of chicken liver DHFR. The assay is classed as biochemical. The method, then:
The activity of DHFR was determined at 25° C. by following the decrease of NADPH and DHF by absorbance measurements at 340 nm (ε=11,800 M^−1 cm^−1) by using a Perkin-Elmer Lambda-2 spectrophotometer with cuvettes of 1.0 cm light-path.
Experiments were performed at pH 7.58 and 25° C. in a buffer containing 2-(N-morpholino)ethanesulfonic acid (MES, 25 mM), sodium acetate (25 mM), tris(hydroxymethyl)aminomethane (Tris 50 mM), and NaCl (100 mM). To prevent the oxidation of catechins, the reaction mixture contained 1 mM ascorbic acid. The pH of the reaction was measured before and after of the experiment. The assays were started by the addition of enzyme. In the absence of the enzyme, the rate of change of absorbance was negligible.
Lineweaver-Burk plots were made of the reaction of chicken liver DHFR (3.3 nM) with DHF and NADPH. For initial velocity inhibition experiments one substrate (NADPH) was held constant at saturating concentration (100 μM) while the concentration of the other substrate (DHF) and the inhibitor (EGCG) were varied (FIG. 3). […] This initial concentration of saturating NADPH was considered as constant after the consumption of 10 μM DHF by the addition of enzyme. Data were fitted by nonlinear regression to the integrated form (31) of the Michaelis equation. The fitting was performed by using Marquart's algorithm (32) implemented in the Sigma Plot 2.01 for Windows (33). […]

The test system of the next assay is Jurkat T. Description: Growth of Jurkat T lymphoma cells. In kind it is cell-based, human. The method, then: To determine whether EGCG inhibits DHFR activity in vivo, two human cancer cell, (Caco-2 from colon cancer and Jurkat T a lymphoma cell line) were incubated with various concentrations of EGCG in a standard medium.
The subject of another assay is p16. Briefly: p16 methylation status in Caco-2 cells. The following applies: EGCG 20 μM, 7-days treatment.

T1 sequence (P00378 whole entry): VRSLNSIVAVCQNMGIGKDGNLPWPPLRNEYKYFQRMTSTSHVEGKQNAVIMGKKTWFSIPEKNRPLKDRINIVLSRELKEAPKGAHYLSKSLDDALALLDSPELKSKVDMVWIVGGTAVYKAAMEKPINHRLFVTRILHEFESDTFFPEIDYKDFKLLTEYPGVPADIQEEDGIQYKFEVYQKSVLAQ

As for (−)-epigallocatechin gallate [EGCG], on chicken liver DHFR (chicken liver DHFR, from secondary plot, read-out: KI as a competitive inhibitor of DHF), the inhibition constant (Ki) came to 10.3 µM. In addition, the “inhibition after preincubation and 500-fold dilution” value on chicken liver DHFR (enzyme 1.65 μM preincubated with 20 to 50 μM inhibitor for 30 min, 500-fold dilution into DHF/NADPH assay) is given as “did not produce any measurable inhibition”. In the assay with Jurkat T, the apoptosis entry is reported as “induction of apoptosis”; the cell cycle effect entry is on record as “G0/G1 phase arrest”; the “effects in HT medium and in the presence of folinic acid or thymine” value is given as “highly attenuated”. Also, the IC50 with Jurkat T (standard medium, read-out: IC50 of cell growth) was found to be 10 µM. The p16 methylation pattern result in the assay on p16 is listed as “changed from methylated to unmethylated”.

A word on the Ki: it is a measure of affinity in units of concentration, obtained from inhibition or displacement. The term IC50 denotes the concentration that gives 50% inhibition.
